Results published in patent US6057324A, “Substituted amidinobenzene derivatives and medicinal compositions thereof” (Yamanouchi Pharmaceutical Co., Ltd, priority 1996, dated 2000).

Legend:
[1] = Metabolic test of an active body (Compound A) in plasma after oral administration to beagle dogs; type: in vivo; settings: 10 mg/kg
Method: Compound of Example 2 of the present invention was administered to three beagle dogs orally at a dose of 10 mg/kg as an aqueous solution and then blood was withdrawn over 48 hours after administration. After centrifugation, plasma was separated and then stored at -20° C. until analysis. Compound A (compound name: 4-[4-(4-amidinophenyl)-3-oxo-1-piperazinyl]-1-piperidineacetic acid, an unexamined published Japanese patent application No. 8-333342), which is an active body produced as a metabolite of Compound of Example 2, was determined by the high performance liquid chromatography method to obtain the pharmacokinetic parameters. Compound A was also administered to the same beagle dogs at a dose of 10 mg/kg, and then plasma Compound A concentration was measured. Pharmacokinetic parameters of Compound A after the administration of Compound of Example 2 and Compound A were compared-with each other. In Table 1 it is shown the pharmacokinetic parameters of plasma Compound A after oral administration, and in FIG. 1 it is shown the plasma concentration-time profile of Compound A after oral administration.
Table 1 represents Pharmacokinetic parameters of plasma Compound A after oral administration of Compound of Example 2 and Compound A to beagle dogs at a dose of 10 mg/kg (mean of three animals±standard deviation) and FIG. 1 represents plasma concentration-time profile of Compound A.

platelets = assay: Ex vivo platelet aggregation-inhibiting activity in cynomolgus monkeys; settings: 1 mg/kg via stomach tube, triggers 20 μM ADP and 10 μg/ml collagen
Method: Cynomolgus monkeys that had been lightly anesthetized by intramuscular administration of ketamine hydrochloride were fixed on a work-bench, and a sample compound of the present invention dissolved or suspended in a methylcellulose solution was administered into the stomach via a stomach tube at a dose of 1 mg/kg. Before the administration and after the administration at a predetermined period of time, 3 ml (containing 1/10 times by volume of sodium citrate) of the blood was collected from the animal through the femoral vein. From the blood, platelet-rich-plasma (PRP) was obtained according to the method of De Marco et al's (see J. clin. Invest., 77, 1272-1277, 1986). The PRP was adjusted at 3×10^8 /ml with an automatic blood cell counter (MEK-5158 Model, produced by Nihon Koden Co.) before use. Then, 20 μM of ADP and 10 μg/ml of bovine tendon-derived collagen (produced by Niko Bioscience Co.) as triggers to cause the aggregation of the platelets. The degree of the aggregation of the platelets was measured with a platelet aggregation meter (NBS Hematracer 801, produced by Niko Bioscience Co.). The platelet aggregation-inhibiting activity of the tested compound was represented by the inhibition percentage (%) relative to the maximum aggregation percentage of each animal before the addition of the test compound.
The test results are shown in Table 2 together with the results of the Compound A which is the active body of the compounds of the present invention.

SMILES | AUC(0-t) at 48 h ([1]; dog, plasma, mean of three animals ± standard deviation, analyte Compound A, read-out: AUC0-48 (area under the time-concentration curve in plasma over 48 hours) of Compound A) [ng·h/mL] | Cmax ([1]; dog, plasma, mean of three animals ± standard deviation, analyte Compound A, read-out: Cmax (maximum plasma concentration) of plasma Compound A) [ng/mL] | Tmax ([1]; dog, plasma, mean of three animals ± standard deviation, analyte Compound A, read-out: Tmax (time to reach Cmax) of plasma Compound A) [h] | half-life ([1]; dog, plasma, mean of three animals ± standard deviation, analyte Compound A, read-out: t1/2 (elimination half life) of plasma Compound A (converted)) [h] | Platelet aggregation-inhibiting ratio after 3 hours (platelets) [%] | Platelet aggregation-inhibiting ratio after 6 hours (platelets) [%] | Platelet aggregation-inhibiting ratio after 9 hours (platelets) [%] | bioavailability of Compound A when administered as prodrug (in words) [1] | plasma residence time of Compound A when administered as prodrug (in words) [1] | t1/2 of Compound A compared with administration of Compound A (in words) [1] | Platelet aggregation-inhibiting ratio after 12 hours (platelets) [%] | Platelet aggregation-inhibiting ratio after 24 hours (platelets) [%]
N=C(N)c1ccc(N2CCN(C3CCN(CC(=O)O)CC3)CC2=O)cc1 [Compound A, 4-[4-(4-amidinophenyl)-3-oxo-1-piperazinyl]-1-piperidineacetic acid] | 3550 ± 838 | 748 ± 175 | 1.7 ± 0.6 | 2.1 | 19.7 ± 9.4 | 16.3 ± 7.5 | 14.2 ± 5.9 | – | – | – | – | –
CCOC(=O)CN1CCC(N2CCN(c3ccc(C(=N)NO)cc3)C(=O)C2)CC1 [Example 2, ethyl 4-[4-(4-hydroxyamidinophenyl)-3-oxo-1-piperazinyl]-1-piperidineacetate] | – | – | – | – | 24.7 ± 23.7 | 66.3 ± 15.4 | 88.0 ± 11.0 | increase | increase | greatly prolonged | 89.0 | 54.0 ± 9.0
CCOC(=O)CN1CCC(N2CCN(c3ccc(C(=N)NC(=O)OC)cc3)C(=O)C2)CC1 [Example 7, Ethyl 4-[4-(4-methoxycarbonylamidinophenyl)-3-oxo-1-piperazinyl]-1-piperidineacetate] | – | – | – | – | 9.0 ± 5.7 | 42.0 ± 14.7 | 60.0 ± 15.6 | – | – | – | 64.3 | 26.0 ± 2.9
